For assay [1], the target named is T1, MKK7 (Homo sapiens, UniProt O14733).
T1 sequence (O14733 1-419): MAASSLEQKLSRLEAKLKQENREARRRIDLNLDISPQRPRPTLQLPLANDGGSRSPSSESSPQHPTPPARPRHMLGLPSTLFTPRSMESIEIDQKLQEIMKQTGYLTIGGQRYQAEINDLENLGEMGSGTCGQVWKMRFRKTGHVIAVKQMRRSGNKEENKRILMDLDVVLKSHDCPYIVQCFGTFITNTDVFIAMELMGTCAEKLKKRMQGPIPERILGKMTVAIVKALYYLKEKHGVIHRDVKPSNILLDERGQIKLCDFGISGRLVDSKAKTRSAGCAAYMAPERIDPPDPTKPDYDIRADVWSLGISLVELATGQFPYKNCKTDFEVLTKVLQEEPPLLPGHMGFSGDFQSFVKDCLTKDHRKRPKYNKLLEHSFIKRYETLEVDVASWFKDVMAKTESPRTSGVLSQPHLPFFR
The experiment in a line: KINOMEscan competition binding assay, MKK7. Also noted: M1/R419; host or cells: HEK-293. The conditions noted are these: ratio PoC (off-target)/PoC (MKK4). In outline:
(§1)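 DNA-tagged kinases expressed in HEK-293 cells compete between immobilized ligand on blocked beads and test compound at 100 nM; kinase retained on beads quantified by qPCR of the tag.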

Assay [2] addresses T2, JNK1 (Homo sapiens, UniProt P45983). The experiment in a line: KINOMEscan competition binding assay, JNK1. Particulars: ratio PoC (off-target)/PoC (MKK4). Also noted: M1/Q384; host or cells: HEK-293. An outline of the steps: as §1
Target sequence in this assay (P45983 1-384 isoform P45983-2): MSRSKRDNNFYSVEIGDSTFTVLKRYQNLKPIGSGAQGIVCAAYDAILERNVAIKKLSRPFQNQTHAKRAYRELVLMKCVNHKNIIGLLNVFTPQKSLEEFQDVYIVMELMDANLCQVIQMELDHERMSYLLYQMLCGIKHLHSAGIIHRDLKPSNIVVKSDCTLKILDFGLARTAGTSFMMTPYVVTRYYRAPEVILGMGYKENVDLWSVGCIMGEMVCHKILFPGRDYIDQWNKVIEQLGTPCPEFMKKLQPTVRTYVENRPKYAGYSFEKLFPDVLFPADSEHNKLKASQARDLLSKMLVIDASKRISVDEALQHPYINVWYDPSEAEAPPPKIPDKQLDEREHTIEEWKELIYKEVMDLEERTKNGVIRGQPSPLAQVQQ
Assay [3] addresses T3, BRaf (Homo sapiens, UniProt P15056).
T3 construct: purchased ProQinase GmbH, Freiburg, Germany (33PanQinase Assay Service)
Nature of the assay: 33PanQinase enzyme assay, BRaf. The format is biochemical. Particulars: ratio IC50(BRaf)/IC50(MKK4). In outline:
(§2)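 Radiometric kinase reactions with ATP, test compound in DMSO and enzyme/substrate mix were incubated 60 min at 30 °C, stopped with 2% H3PO4 and washed; incorporated 33Pi was counted by scintillation. Single-concentration data are given as % residual activity; IC50 values come from least-squares curve fits.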

The target in assay [4] is T4, MKK4 (Homo sapiens, UniProt P45985).
T4 construct: S84/D399; host or cells: HEK-293
T4 sequence (P45985 84-399): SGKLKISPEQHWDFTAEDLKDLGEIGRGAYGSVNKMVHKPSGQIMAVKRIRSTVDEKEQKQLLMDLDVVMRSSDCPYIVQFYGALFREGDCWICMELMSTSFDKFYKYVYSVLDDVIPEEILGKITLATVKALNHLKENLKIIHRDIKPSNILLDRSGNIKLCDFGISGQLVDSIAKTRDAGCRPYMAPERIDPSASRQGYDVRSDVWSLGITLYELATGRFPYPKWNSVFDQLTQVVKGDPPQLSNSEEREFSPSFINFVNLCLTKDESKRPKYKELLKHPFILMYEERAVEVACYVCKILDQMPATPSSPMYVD
Nature of the assay: KINOMEscan competition binding assay, MKK4. The conditions noted are these: residual percent of control binding (PoC) at 100 nM. An outline of the steps: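 KINOMEscan competition of compound versus immobilized ligand for DNA-tagged MKK4 expressed in HEK-293 cells. Bound kinase was quantified by qPCR after elution.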

Assay [5] concerns the target T2, JNK1. The experiment in a line: 33PanQinase enzyme assay, JNK1. Particulars: ratio IC50(JNK1)/IC50(MKK4). The format is biochemical. Also noted: purchased ProQinase GmbH, Freiburg, Germany (33PanQinase Assay Service). An outline of the steps: as §2
Target sequence in this assay (P45983 whole entry): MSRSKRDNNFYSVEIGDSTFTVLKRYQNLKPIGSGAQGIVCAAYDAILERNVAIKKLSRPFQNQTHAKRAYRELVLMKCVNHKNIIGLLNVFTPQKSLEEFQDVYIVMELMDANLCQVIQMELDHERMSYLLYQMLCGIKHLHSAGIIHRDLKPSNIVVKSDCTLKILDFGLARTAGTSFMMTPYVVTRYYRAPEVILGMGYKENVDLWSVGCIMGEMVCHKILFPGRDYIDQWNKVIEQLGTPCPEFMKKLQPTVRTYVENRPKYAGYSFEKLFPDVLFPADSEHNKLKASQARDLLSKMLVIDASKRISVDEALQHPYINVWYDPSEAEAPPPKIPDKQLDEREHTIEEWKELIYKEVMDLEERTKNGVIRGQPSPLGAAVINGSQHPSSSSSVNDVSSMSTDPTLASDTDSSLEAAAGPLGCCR
For assay [6], the target named is T3, BRaf. The experiment in a line: KINOMEscan competition binding assay, BRaf. The conditions noted are these: ratio PoC (off-target)/PoC (MKK4). In outline: as §1
In assay [7] the target is T5, MKK4 (Homo sapiens, UniProt P45985).
T5 construct: purchased ProQinase GmbH, Freiburg, Germany (33PanQinase Assay Service)
T5 sequence (P45985 1-399): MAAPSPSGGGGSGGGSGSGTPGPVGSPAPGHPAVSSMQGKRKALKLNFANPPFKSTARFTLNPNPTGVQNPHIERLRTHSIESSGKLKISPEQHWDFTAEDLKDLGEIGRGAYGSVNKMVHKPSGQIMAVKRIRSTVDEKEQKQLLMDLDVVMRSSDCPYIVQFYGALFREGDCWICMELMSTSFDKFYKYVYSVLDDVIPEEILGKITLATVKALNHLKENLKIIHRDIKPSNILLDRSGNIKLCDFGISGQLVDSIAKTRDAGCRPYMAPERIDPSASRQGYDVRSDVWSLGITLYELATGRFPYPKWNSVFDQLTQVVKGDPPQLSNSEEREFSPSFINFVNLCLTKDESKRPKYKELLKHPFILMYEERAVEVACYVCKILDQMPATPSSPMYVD
The experiment in a line: 33PanQinase enzyme assay, MKK4. Format: biochemical. Particulars: assay 'IC50'; read-out: Potency MKK4 (IC50). An outline of the steps: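 Radiometric 33PanQinase assay: kinase, substrate, ATP and compound in standard buffer, 60 min at 30 °C; 33Pi incorporation read by scintillation counting.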

Assay [8] addresses T1, MKK7. The experiment in a line: 33PanQinase enzyme assay, MKK7. Also noted: purchased ProQinase GmbH, Freiburg, Germany (33PanQinase Assay Service). The format is biochemical. The conditions noted are these: ratio IC50(MKK7)/IC50(MKK4). An outline of the steps:
as §2

Structures are written as SMILES. Bounds are passed on as bounds.

T3 sequence (P15056 whole entry, species assumed): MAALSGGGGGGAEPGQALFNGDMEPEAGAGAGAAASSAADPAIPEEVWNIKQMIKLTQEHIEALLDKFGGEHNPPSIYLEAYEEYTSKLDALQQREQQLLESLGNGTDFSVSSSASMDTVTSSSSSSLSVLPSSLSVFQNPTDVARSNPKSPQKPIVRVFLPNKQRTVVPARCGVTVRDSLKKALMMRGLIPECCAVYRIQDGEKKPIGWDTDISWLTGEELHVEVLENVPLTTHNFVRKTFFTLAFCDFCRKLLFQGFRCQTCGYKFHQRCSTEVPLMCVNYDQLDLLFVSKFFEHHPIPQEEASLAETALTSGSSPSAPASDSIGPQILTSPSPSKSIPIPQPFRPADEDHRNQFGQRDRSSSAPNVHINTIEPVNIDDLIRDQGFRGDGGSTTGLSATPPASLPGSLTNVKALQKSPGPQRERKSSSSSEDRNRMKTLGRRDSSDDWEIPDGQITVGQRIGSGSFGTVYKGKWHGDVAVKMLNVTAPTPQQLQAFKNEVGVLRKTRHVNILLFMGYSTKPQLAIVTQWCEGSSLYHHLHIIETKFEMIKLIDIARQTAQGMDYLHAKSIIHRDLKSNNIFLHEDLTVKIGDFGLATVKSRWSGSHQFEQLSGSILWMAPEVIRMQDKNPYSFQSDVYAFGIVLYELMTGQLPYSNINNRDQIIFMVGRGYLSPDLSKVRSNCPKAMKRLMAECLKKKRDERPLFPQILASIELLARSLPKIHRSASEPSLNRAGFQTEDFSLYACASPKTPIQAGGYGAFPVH

In the case of `O=C(c1ccc(F)c(NS(=O)(=O)CCC(F)(F)F)c1F)c1c[nH]c2ncc(-c3cnc(N4CCC4)nc3)cc12` [Example 180, N-(3(5-(2-(azetidin-1-yl)pyrimidin-5-yl)-1H-pyrrolo[2,3-b]pyridine-3-carbonyl)-2,6-difluorophenyl)-3,3,3-trifluoropropane-1-sulfonamide], the “selectivity based on % Ctrl @100 nM vs. MKK7” value in assay [1] is reported as “+++ (Ratio > 100)”. Besides, the “selectivity based on % Ctrl @100 nM vs. JNK1” value in assay [2] is recorded as “+++ (Ratio > 100)”. Further, the “Selectivity Braf, IC50(off-target)/IC50(MKK4)” value (“Selectivity Braf” below) in assay [3] is recorded as “+++ (IC50(off-target)/IC50(MKK4) > 100)”. Also, the “MKK4 [% Ctrl @ 100 nM” value in assay [4] was “+++ (PoC < 1)”. Also, the “Selectivity JNK1, IC50(off-target)/IC50(MKK4)” value (“Selectivity JNK1” below) in assay [5] was “+++ (IC50(off-target)/IC50(MKK4) > 100)”. Besides, the “selectivity based on % Ctrl @100 nM vs. Braf” value in assay [6] is “+++ (Ratio > 100)”. Also, the IC50 in assay [7] was less than 0.1 µM. In assay [8], the “Selectivity IVIKK7, IC50(off-target)/IC50(MKK4)” value (“Selectivity IVIKK7” below) was “+++ (IC50(off-target)/IC50(MKK4) > 100)”.

`CCCS(=O)(=O)Nc1c(F)ccc(C(=O)c2c[nH]c3ncc(-c4ccc(N(C)C)nc4)cc23)c1F` [Example 161, N-(3-(5-(6-(dimethylamino)pyridin-3-yl)-1H-pyrrolo[2,3-b]pyridine-3-carbonyl)-2,6-difluorophenyl)propane-1-sulfonamide]: the “selectivity based on % Ctrl @100 nM vs. MKK7” value in assay [1] is listed as “+++ (Ratio > 100)”. In addition, the “selectivity based on % Ctrl @100 nM vs. JNK1” value in assay [2] is listed as “+++ (Ratio > 100)”. Further, the “Selectivity Braf” value in assay [3] was “++ (100 ≥ IC50(off-target)/IC50(MKK4) > 10)”. Also, the “MKK4 [% Ctrl @ 100 nM” value in assay [4] is recorded as “+++ (PoC < 1)”. Besides, the “Selectivity JNK1” value in assay [5] is reported as “++ (100 ≥ IC50(off-target)/IC50(MKK4) > 10)”. In addition, the “selectivity based on % Ctrl @100 nM vs. Braf” value in assay [6] is “+++ (Ratio > 100)”. The IC50 in assay [7] is less than 0.1 µM. Further, in assay [8], the “Selectivity IVIKK7” value was “+++ (IC50(off-target)/IC50(MKK4) > 100)”.

For `CCCS(=O)(=O)Nc1ccc(F)c(C(=O)c2c[nH]c3ncc(-c4ccc(N)nc4)cc23)c1F` [Example 50], the “selectivity based on % Ctrl @100 nM vs. MKK7” value in assay [1] is recorded as “+++ (Ratio > 100)”. In addition, the “selectivity based on % Ctrl @100 nM vs. JNK1” value in assay [2] is “+++ (Ratio > 100)”. In assay [3], the “Selectivity Braf” value was “◯ (3 ≥ IC50(off-target)/IC50(MKK4))”. Also, the “MKK4 [% Ctrl @ 100 nM” value in assay [4] is “+++ (PoC < 1)”. Also, in assay [5], the “Selectivity JNK1” value was “◯ (3 ≥ IC50(off-target)/IC50(MKK4))”. Besides, the “selectivity based on % Ctrl @100 nM vs. Braf” value in assay [6] was “◯ (3 ≥ Ratio)”. Besides, in assay [7], the IC50 lay in the range of 0.1 to 1 µM. Also, the “Selectivity IVIKK7” value in assay [8] was “+++ (IC50(off-target)/IC50(MKK4) > 100)”.

For the compound `C=Cc1ccc(-c2cnc3[nH]cc(C(=O)c4ccc(F)c(NS(=O)(=O)CCC)c4F)c3c2)cn1` [Example 163, N-(2,6-difluoro-3-(5-(6-vinylpyridin-3-yl)-1H-pyrrolo[2,3-b]pyridine-3-carbonyl)phenyl)propane-1-sulfonamide], the “selectivity based on % Ctrl @100 nM vs. MKK7” value in assay [1] was “+++ (Ratio > 100)”. Besides, the “selectivity based on % Ctrl @100 nM vs. JNK1” value in assay [2] was “+++ (Ratio > 100)”. Besides, the “Selectivity Braf” value in assay [3] is “++ (100 ≥ IC50(off-target)/IC50(MKK4) > 10)”. Also, the “MKK4 [% Ctrl @ 100 nM” value in assay [4] is given as “+++ (PoC < 1)”. The “Selectivity JNK1” value in assay [5] was “++ (100 ≥ IC50(off-target)/IC50(MKK4) > 10)”. Also, in assay [6], the “selectivity based on % Ctrl @100 nM vs. Braf” value was “+++ (Ratio > 100)”. The IC50 in assay [7] was less than 0.1 µM. Besides, in assay [8], the “Selectivity IVIKK7” value is reported as “+++ (IC50(off-target)/IC50(MKK4) > 100)”.

As to `CCCS(=O)(=O)Nc1c(F)ccc(C(=O)c2c[nH]c3ncc(-c4ccc(C5CC5)nc4)cc23)c1F` [Example 159, N-(3-(5-(6-cyclopropylpyridin-3-yl)-1H-pyrrolo[2,3-b]pyridine-3-carbonyl)-2,6-difluorophenyl)propane-1-sulfonamide], the “selectivity based on % Ctrl @100 nM vs. MKK7” value in assay [1] is “+++ (Ratio > 100)”. For the same compound, in assay [2], the “selectivity based on % Ctrl @100 nM vs. JNK1” value is “+++ (Ratio > 100)”. For the same compound, the “Selectivity Braf” value in assay [3] is “++ (100 ≥ IC50(off-target)/IC50(MKK4) > 10)”. For the same compound, the “MKK4 [% Ctrl @ 100 nM” value in assay [4] is on record as “+++ (PoC < 1)”. For the same compound, in assay [5], the “Selectivity JNK1” value is listed as “+++ (IC50(off-target)/IC50(MKK4) > 100)”. Also, the “selectivity based on % Ctrl @100 nM vs. Braf” value in assay [6] is “+++ (Ratio > 100)”. The IC50 in assay [7] was less than 0.1 µM. Further, in assay [8], the “Selectivity IVIKK7” value is reported as “+++ (IC50(off-target)/IC50(MKK4) > 100)”.

As for `COc1ccc(-c2cnc3[nH]cc(C(=O)c4cccc(NS(=O)(=O)Cc5ccccc5)c4F)c3c2)c(Cl)c1` [Example 125, N-(3-(5-(2-chloro-4-methoxyphenyl)-1H-pyrrolo[2,3-b]pyridine-3-carbonyl)-2-fluorophenyl)-1-phenylmethanesulfonamide], the “selectivity based on % Ctrl @100 nM vs. MKK7” value in assay [1] is “++ (100 ≥ ratio > 10)”. The “selectivity based on % Ctrl @100 nM vs. JNK1” value in assay [2] is “++ (100 ≥ ratio > 10)”. Further, the “Selectivity Braf” value in assay [3] is “+++ (IC50(off-target)/IC50(MKK4) > 100)”. Moreover, the “MKK4 [% Ctrl @ 100 nM” value in assay [4] is “++ (1 ≤ PoC < 3)”. The “Selectivity JNK1” value in assay [5] is recorded as “+ (10 ≥ IC50(off-target)/IC50(MKK4) > 3)”. Further, the “selectivity based on % Ctrl @100 nM vs. Braf” value in assay [6] was “++ (100 ≥ ratio > 10)”. For the same compound, the IC50 in assay [7] was 0.1 to 1 µM. Further, the “Selectivity IVIKK7” value in assay [8] is recorded as “+++ (IC50(off-target)/IC50(MKK4) > 100)”.
